US12582132B2, “Germination/sprouting and fruit ripening regulators” (The United States of America, as represented by the …, priority 2021, dated 2026)
Entries after “also recorded” stand apart in the source; their conditions may differ.

What was measured:
Assay type in all cases: in vivo
strawberry fruit = experiment: CAD analogs: ability to hasten strawberry fruit ripening; details: 50 μM in 0.1% TRITON-X 100, applied at the same timing as CAD; compared with CAD
Description: Chemicals with similarity to CAD were tested for their ability to hasten fruit ripening.
To the inventors' knowledge, no chemical closely related to CAD is currently commercially available. A few analogs with 88-90% similarity to CAD were found in the ChemBridge database used in Example 1.
This compound has 90% similarity to CAD.

[1] = test system: Strawberry seeds (Fragaria x ananassa CV. Albion); experiment: Chemical library screening for delaying strawberry seed germination; details: about 5 μM chemical in 0.1% TRITON X-100; strawberry seeds in 96 well plates, 25° C., vs non-treated or mock-treated seeds
Description: A chemical library containing 10,000 small compounds (˜300 Dalton) was purchased from ChemBridge Co (San Diego, California, USA). Strawberry seeds (Fragaria x ananassa CV. Albion) were purchased from Johnny's Seeds (Fairfield, Maine, USA). Five to six seeds were sterilized with 70% ethanol and added to each well of 96 well ELISA plates containing about 5 μM chemical 0.1% TRITON X-100 surfactant (polyethylene glycol tert-octylphenyl ether). One mM abscisic acid (ABA), a hormone that inhibits seed germination, and gibberellic acid (GA3), a hormone that promotes seed germination, were used as controls. Each experiment was conducted in triplicate. Plates were kept in a growth chamber at 25° C. under dark, and a 14 hour light/10 hour dark cycle was added after seed germination was observed.

[2] = test system: Strawberry fruit (Fragaria x ananassa CV. Albion); experiment: Treatment of strawberry fruit by dipping: fruit ripening; details: for strawberry fruit ripening compared to mock-treated strawberries: 10 μM CAD or 1 mM ABA in 0.1% TRITON X-100, dipped 20 seconds eight days after pollination; for strawberry appearance (colour), FIG. 2A: 7 DAT; for strawberry appearance (colour), FIG. 2A / strawberry appearance (colour), FIG. 2B / strawberry appearance (colour), FIG. 2C / strawberry appearance (colour), FIG. 2D / strawberry appearance (colour), FIG. 2E / strawberry appearance (colour), FIG. 2F: 8 day old fruit, 10 μM CAD or 1 mM ABA in 0.1% TRITON-X100; for strawberry appearance (colour), FIG. 2B: 8 DAT; for strawberry appearance (colour), FIG. 2C: 9 DAT; for strawberry appearance (colour), FIG. 2D: 10 DAT; for strawberry appearance (colour), FIG. 2E: 11 DAT; for strawberry appearance (colour), FIG. 2F: 12 DAT
Description: Strawberry plants (Fragaria x ananassa CV. Albion) were grown in a greenhouse at 28° C. and 14-hour light/10-hour dark conditions. […] Fruits were allowed to continue growing on the plants. FIG. 1 depicts images of strawberry fruit development under standard conditions.
FIG. 2A to FIG. 2F depict images of strawberries treated with either 10 μM CAD in 0.1% TRITON X-100 surfactant; 1 mM ABA in 0.1% TRITON X-100 surfactant; or buffer (0.1% TRITON X-100 surfactant) without chemical (mock-treated). […] The CAD dosage was lower than that of ABA (10 μM vs. 1 mM), and CAD stimulated fruit ripening faster than did ABA. […] In contrast, ABA-treated fruit started to turn red 9 DAT, and reached full red 11 DAT.

[3] = test system: Cherry tomato fruits at mature green stage; experiment: Treatment of cherry tomatoes by injection: fruit ripening; details: for cherry tomato appearance (colour), FIG. 3B / FIG. 3D: 6 DAT, injected with 10 μM CAD or 200 μM ABA in 0.1% TRITON-X100; for cherry tomato ripening stage: six days after treatment, injected with 50 μM CAD or 200 μM ABA in 0.1% TRITON X-100
Description: Cherry tomato fruits at mature green stage were purchased from Butler's Orchard (Germantown, Maryland, USA). Each fruit was injected with either 50 μM CAD in 0.1% TRITON X-100 surfactant; 200 μM ABA in 0.1% TRITON X-100 surfactant; or buffer alone (0.1% TRITON X-100 surfactant). […] FIG. 3A and FIG. 3B show images of cherry tomatoes injected with 10 μM CAD. FIG. 3C and FIG. 3D show images of cherry tomatoes injected with 200 μM ABA. FIG. 3E and FIG. 3F show images of cherry tomatoes injected with buffer alone. FIG. 3G and FIG. 3H show images of untreated tomatoes. FIG. 3A; FIG. 3C; FIG. 3E; and FIG. 3G show images taken the day of treatment. FIG. 3B; FIG. 3D; […]; and FIG. 3H show images taken 6 DAT.

[4] = test system: strawberries on the plant; experiment: Effect of CAD injection on strawberry fruit ripening; details: for strawberry appearance (colour), FIG. 4A: 8 DAT; for strawberry appearance (colour), FIG. 4A / strawberry appearance (colour), FIG. 4B / strawberry appearance (colour), FIG. 4C / strawberry appearance (colour), FIG. 4D / strawberry appearance (colour), FIG. 4E / strawberry appearance (colour), FIG. 4F: 7 day old fruit, 10 μM CAD or 200 μM ABA in 0.1% TRITON-X100, injected; for strawberry appearance (colour), FIG. 4B: 9 DAT; for strawberry appearance (colour), FIG. 4C: 10 DAT; for strawberry appearance (colour), FIG. 4D: 11 DAT; for strawberry appearance (colour), FIG. 4E: 12 DAT; for strawberry appearance (colour), FIG. 4F: 13 DAT
Description: While still on the plant, strawberries were injected with either 10 μM CAD in 0.1% TRITON-X 100 surfactant; 200 μM ABA in 0.1% TRITON-X 100 surfactant; or 0.1% TRITON-X 100 surfactant. The strawberries were allowed to remain on the plant, and removed and photographed at 8 DAT, 9 DAT, 10 DAT, 11 DAT, 12 DAT, and 13 DAT. FIG. 4A to FIG. 4F depict images of strawberries treated with either 10 μM CAD in 0.1% TRITON-X 100 surfactant; 200 μM ABA in 0.1% TRITON-X 100 surfactant; or 0.1% TRITON-X 100 surfactant alone (mock); or no treatment.

[5] = 10 μM CAD or 1 mM ABA in 0.1% TRITON X-100, dipped eight days after pollination, days after treatment

CCn1cc(Br)c(C(=O)Nc2ccccc2C(C)(C)C)n1 [4-bromo-N-(2-tert-butylphenyl)-1-ethyl-1H-pyrazole-3-carboxamide]
effect on strawberry fruit ripening (strawberry fruit): a lower effect on fruit ripening than CAD

CCc1cccc(C)c1NC(=O)c1ccn(CC)n1 [1-ethyl-N-(2-ethyl-6-methylphenyl)-1H pyrazole-3-carboxamide]
effect on strawberry fruit ripening (strawberry fruit): no obvious effect on fruit ripening

CCc1cc(Br)ccc1NC(=O)c1ccn(CC)n1 [CAD, N-(4-bromo-2-ethylphenyl)-1-ethyl-1H-pyrazole-3-carboxamide]
delaying seed germination [1]: can delay seed germination | strawberry fruit ripening compared to mock-treated strawberries [2]: stimulated strawberry fruit ripening | fruit reached full red [2, 5]: 9 DAT | strawberry appearance (colour), FIG. 2A [2]: white have a pink tint | strawberry appearance (colour), FIG. 2B [2]: with pink spots | strawberry appearance (colour), FIG. 2C [2]: mostly red | strawberry appearance (colour), FIG. 2D [2]: red | strawberry appearance (colour), FIG. 2E [2]: red allover | strawberry appearance (colour), FIG. 2F [2]: red allover | cherry tomato appearance (colour), FIG. 3B / FIG. 3D [3]: dark red | cherry tomato ripening compared to mock-treated or untreated cherry tomatoes ([3]; CAD injected in 0.1% TRITON X-100): hastening of cherry tomato ripening; also recorded: promoted fruit ripening of climacteric tomatoes | cherry tomato ripening stage [3]: fully ripen (red stage) | strawberry appearance (colour), FIG. 4A [4]: with a pink tint | strawberry appearance (colour), FIG. 4B [4]: mostly light red; also recorded: showed some color | strawberry appearance (colour), FIG. 4C [4]: red and ripe | strawberry appearance (colour), FIG. 4D [4]: red | strawberry appearance (colour), FIG. 4E [4]: bright red | strawberry appearance (colour), FIG. 4F [4]: red allover | ripened before strawberries injected with 200 μM ABA ([4]; strawberries injected with 10 μM CAD in TRITON-X100 14 days after pollination): at least two

CCn1ccc(C(=O)Nc2ccc(Br)cc2)n1 [N-(4-bromophenyl)-1-ethyl-1H-pyrazole-3-carboxamide]
effect on strawberry fruit ripening (strawberry fruit): has an effect on fruit ripening; also recorded: promoted strawberry fruit ripening, although not as effectively as CAD

CC1=CC(=O)CC(C)(C)[C@@]1(O)/C=C/C(C)=C\C(=O)O [ABA, abscisic acid, reference compound]
strawberry fruit ripening compared to mock-treated strawberries [2]: stimulated strawberry fruit ripening | fruit began/started to turn red (start of ripening) [2, 5]: 9 DAT | fruit reached full red [2, 5]: 11 DAT | strawberry appearance (colour), FIG. 2A [2]: white with a greenish tint | strawberry appearance (colour), FIG. 2B [2]: white | strawberry appearance (colour), FIG. 2C [2]: with more pink | strawberry appearance (colour), FIG. 2D [2]: reddish | strawberry appearance (colour), FIG. 2E [2]: mostly red | strawberry appearance (colour), FIG. 2F [2]: red allover | cherry tomato appearance (colour), FIG. 3B / FIG. 3D [3]: red | cherry tomato ripening stage [3]: fully ripen (red stage) | strawberry appearance (colour), FIG. 4A [4]: white or greenish white | strawberry appearance (colour), FIG. 4B [4]: with some pink | strawberry appearance (colour), FIG. 4C [4]: pink/red | strawberry appearance (colour), FIG. 4D [4]: reddish | strawberry appearance (colour), FIG. 4E [4]: red | strawberry appearance (colour), FIG. 4F [4]: red with some white at the top
